Reference: patent US20090119801A1, “Method for preserving cut flowers, cut flower preservation kit, method for manufacturing processed cut flowers, and processed cut flowers” (SUNTORY FLOWERS LIMITED, priority 2007, published 2009)

experiment: not given; conditions: logP; cited from earlier work

| Compound | partition coefficient |
| --- | --- |
| CO [Methanol] | −0.719 |
| C1COCCO1 [1,4-dioxane] | −0.271 |
| CC(C)=O [acetone] | −0.157 |

experiment: Volatilization rate of organic solvents (Table 2); assay type: physicochemical; conditions: not given

| Compound | volatilization rate (%) |
| --- | --- |
| CCCC(O)C(CC)CO (stereo not shown) [2-ethyl-1,3-hexanediol] | 0% |
| CC(CCO)CCO [3-methyl-1,5-pentanediol] | 0% |
| OCCO [ethylene glycol] | 0% |
| CC(O)CC(C)(C)O (stereo not shown) [2-methyl-2,4-pentanediol] | 3% |
| CCCCC(CC)COCCOCCO (stereo not shown) [2-[2-(2-ethylhexyloxy)ethoxy]ethanol] | 0% |
| OCC(O)CO [glycerin] | 0% |
| CCCCC(CC)COCCO (stereo not shown) [2-(2-ethylhexyloxy)ethanol] | 1% |
